Results published in ChEMBL document CHEMBL6071146, “Synthesis and identification of a selective FGFR2 degrader with potent antiproliferative effects in gastric cancer” (Eur J Med Chem, 2024).

Experiments:
[1] = Antiproliferative activity against human KATO III cells incubated for 72 hrs by MTT assay
SNU-16 = assay: Antiproliferative activity against human SNU-16 cells incubated for 72 hrs by MTT assay; details: SNU-16, 72 h

For `COc1cc(OC)cc(N(CCNC(C)C)c2ccc3ncc(-c4cnn(CCOCCOCC(=O)NCCNc5cccc6c5C(=O)N(C5CCC(=O)NC5=O)C6=O)c4)nc3c2)c1` (stereo not drawn), the IC50 [1] was 208 nM and the IC50 (SNU-16) was 1 nM.

Compound `COc1cc(OC)cc(N(CCNC(C)C)c2ccc3ncc(-c4cnn(CCCCCC(=O)NCCNc5cccc6c5C(=O)N(C5CCC(=O)NC5=O)C6=O)c4)nc3c2)c1` (stereo not drawn) has an IC50 [1] of 51 nM and an IC50 (SNU-16) of 1 nM.

Work on `COc1cc(OC)cc(N(CCNC(C)C)c2ccc3ncc(-c4cnn(CC(=O)NCCNc5cccc6c5C(=O)N(C5CCC(=O)NC5=O)C6=O)c4)nc3c2)c1` (stereo not drawn) yielded an IC50 [1] of 463 nM and an IC50 (SNU-16) of 48 nM.

For `COc1cc(OC)cc(N(CCNC(C)C)c2ccc3ncc(-c4cnn(CCOCCOCCOCC(=O)NCCNc5cccc6c5C(=O)N(C5CCC(=O)NC5=O)C6=O)c4)nc3c2)c1` (stereo not drawn), the IC50 [1] was 140 nM and the IC50 (SNU-16) was 1 nM.

In the case of `COc1cc(OC)cc(N(CCNC(C)C)c2ccc3ncc(-c4cnn(CCCCCCCCCC(=O)NCCNc5cccc6c5C(=O)N(C5CCC(=O)NC5=O)C6=O)c4)nc3c2)c1` (stereo not drawn), the IC50 [1] is reported as 2 nM and the IC50 (SNU-16) is reported as < 0.17 nM.

In the case of `COc1cc(OC)cc(N(CCNC(C)C)c2ccc3ncc(-c4cnn(CCC(=O)NCC(=O)NCCNc5cccc6c5C(=O)N(C5CCC(=O)NC5=O)C6=O)c4)nc3c2)c1` (stereo not drawn), the IC50 [1] is reported as 457 nM and the IC50 (SNU-16) is reported as 150 nM.

`COc1cc(OC)cc(N(CCNC(C)C)c2ccc3ncc(-c4cnn(CCOCC(=O)NCCNc5cccc6c5C(=O)N(C5CCC(=O)NC5=O)C6=O)c4)nc3c2)c1` (stereo not drawn) gave an IC50 [1] of 388 nM and an IC50 (SNU-16) of 23 nM.

`COc1cc(OC)cc(N(CCNC(C)C)c2ccc3ncc(-c4cnn(CCC(=O)NCCNc5cccc6c5C(=O)N(C5CCC(=O)NC5=O)C6=O)c4)nc3c2)c1` (stereo not drawn) showed an IC50 [1] of 701 nM and an IC50 (SNU-16) of 153 nM.

For `COc1cc(OC)cc(N(CCNC(C)C)c2ccc3ncc(-c4cnn(CCCCCCCC(=O)NCCNc5cccc6c5C(=O)N(C5CCC(=O)NC5=O)C6=O)c4)nc3c2)c1` (stereo not drawn), the IC50 [1] was < 0.17 nM and the IC50 (SNU-16) was < 0.17 nM.
